Reference: patent US8263791B2, “Method and reagent for protein analysis” (National Institute of Advanced Industrial Science and …, priority 2008, dated 2012)
Several values for one entry are separate records, joined by “and”; a condition that tells them apart may be missing. Equal values may be shown once.

What was measured:
[1] = test system: Protein Standard Mixture IV (ovotransferrin, albumin, ovalbumin, carboanhydrase, myoglobin, cytochrome C); experiment: Evaluation of protein detection using Compound 1 and Compound 2 (staining after electrophoresis, Tween80); set-up: key to Detection: +: All bands could be detected.; −: At least one band could not be detected; conditions: for Detection / Detection limit (protein per band that could be detected): compound 60 μg/mL; for Detection limit (protein per band that could be detected): 1% Tween80 before and after staining
Protocol: (§1) Two (2) mL of a stock buffer (a mixture of purified water (4.2 mL), 0.5 M Tris-hydrochloric acid buffer (pH 8.6) (1.0 mL), glycerol (0.8 mL), 100 g/L sodium dodecyl sulfate (1.6 mL), and 2-mercaptoethanol (0.4 mL)) was added to 2 mg of a commercially available molecular weight marker (Protein Standard Mixture IV; Merck & Co., Inc.). The mixture was heated in boiling water for 2 minutes and then cooled. Thirty (30) μL each of the resultant was dispensed in a 0.5-mL microtube and then cryopreserved at −80° C. until the use thereof. A sample diluent (a mixture of purified water (3.8 mL), 0.5 M Tris-hydrochloric acid buffer (pH 8.6) (1.0 mL), glycerol (0.8 mL), 100 g/L sodium dodecyl sulfate (1.6 mL), and 5 g/L bromophenol blue (0.8 mL)) was added to the thawed molecular weight marker, so that a dilution series with protein concentrations ranging from 0.4 ng/μL to 200 ng/μL was prepared.
(§2) The marker contained, in terms of mass, equal amounts of ovotransferrin (78 kDa), albumin (66.3 kDa), ovalbumin (42.7 kDa), carboanhydrase (30 kDa), myoglobin (16.9 kDa), and cytochrome C (12.4 kDa).
(§3) • Electrophoresis apparatus: RAPIDAS-Mini-Slab electrophoresis chamber AE6450 (ATTO Corporation) • Polyacrylamide gel: Multigel II mini 10/20 (13W) (COSMO BIO Co., Ltd.) • Buffer for electrophoresis: 27.2 mM Tris (hydroxymethyl) aminomethane, 192 mM glycine, 3.5 mM Sodium dodecyl sulfate (pH 8.3) • Fluorescence imaging analyzer: Light capture II (ATTO Corporation)
(§4) Each sample of the dilution series prepared in (1) above was applied to a gel at 5 μL/well (lane 1: 167 ng of protein/band; lane 2: 83.3 ng/band; lane 3: 41.7 ng/band; lane 4: 20.8 ng/band; lane 5: 10.4 ng/band; lane 6: 5.2 ng/band; lane 7: 2.6 ng/band; lane 8: 1.3 ng/band; lane 9: 0.7 ng/band; and lane 10: 0.4 ng/band) and then subjected to electrophoresis with constant current of 30 mA for 45 minutes.
(§5) Protein detection was carried out using Compound 1 and Compound 2 synthesized in Example 1 under analysis conditions described in Example 3. After electrophoresis, the gel was first immersed in 1% Tween80 aqueous solution for 20 minutes and then immersed in a buffer containing Compound 1 (60 μg/mL) or Compound 2 (60 μg/mL) for 10 minutes. Subsequently, the gel was transferred to and immersed in a container containing a 1% Tween80 aqueous solution for 30 minutes. […] The total time needed for treatment was 60 minutes. The gel was analyzed using a fluorescence imaging analyzer. When Compound 1 was used, bands containing 2.6 ng or more of proteins could be detected. Compared with the result, the detection limit was 20 ng in the case of Compound 2.

[2] = Measurement of maximum absorption wavelength and maximum fluorescence wavelength; format: physicochemical; conditions: 25 μg/mL in purified water
Protocol: Compound 1 and Compound 2 were separately dissolved in purified water at a concentration of 25 μg/mL. The absorption spectra at a wavelength ranging from 200 nm to 800 nm and the fluorescence spectra at a wavelength ranging from 450 nm to 600 nm were measured. The absorption spectra were measured using U3310 (Hitachi High-Technologies Corporation) and the fluorescence spectra were measured using RF-1500 (Shimadzu Corporation).

[3] = test system: Protein Standard Mixture IV (ovotransferrin, albumin, ovalbumin, carboanhydrase, myoglobin, cytochrome C); experiment: Protein detection on SDS-PAGE gel by staining after electrophoresis, varying solutions (I)/(II); conditions: 100 μg/mL
Protocol: as §1, §2, §3
Light source: green LED (center wavelength: 525 nm)
Cut filter: R-60 (550 nm).
as §4
(§6) After electrophoresis, the gel was immediately immersed in a solution (I) (purified water, 1% Tween80 aqueous solution, or 1% Tween20 aqueous solution) for a predetermined period of time (20 minutes or 30 minutes). Subsequently, the gel was transferred to another container and then a buffer (purified water/25 mM phosphate buffer (pH 2.5)/methanol=45/45/10 (v/v)) in which Compound 1 (100 μg/mL) had been dissolved was added. After being left to stand for 10 minutes, the gel was transferred to another container and then immersed in a solution (II) (purified water, 1% Tween80 aqueous solution, or 1% Tween20 aqueous solution) for decoloration.

[4] = Water solubility / precipitation in the staining solution; format: physicochemical
Protocol: as §6, §5
(§7) After electrophoresis, the gel was immediately immersed in distilled water for 20 to 30 minutes. Subsequently, the gel was transferred to another container and then a staining solution (distilled water:methanol=1:1 (v/v)) in which Compound 3 (100 μg/mL) had been dissolved was added. After 30 minutes of immersion, the gel was transferred to another container and then immersed in a wash solution (water:methanol=90:10 (v/v)) for decoloration. The gel was observed using a fluorescence imaging analyzer.

[5] = test system: Protein Standard Mixture IV (ovotransferrin, albumin, ovalbumin, carboanhydrase, myoglobin, cytochrome C); experiment: Protein detection with staining carried out during electrophoresis; set-up: key to Detection: +: All bands could be detected.; −: At least one band could not be detected; conditions: compound 15 μg/mL in electrophoresis buffer
Protocol: Compound 1 or Compound 2 were dissolved in a buffer for electrophoresis (27.2 mM Tris (hydroxymethyl)aminomethane, 192 mM glycine, and 3.5 mM sodium dodecyl sulfate (pH 8.3)) at a concentration of 15 μg/mL. With the use of the above buffer, the other conditions identical to those described in Example 3 were employed to carry out electrophoresis. After completion of electrophoresis, the gel was transferred to a container containing 1% Tween80 aqueous solution, left to stand for 40 minutes, and then analyzed using a fluorescence imaging analyzer. When Compound 1 was used, bands containing 5.2 ng or more of a protein could be detected.

BSA = target: T1, BSA (Bos taurus, UniProt P02769); experiment: Evaluation of protein detection using Compound 3; set-up: key to Detection: +: Band could be detected.; −: No band could be detected
T1 construct: purchased PIERCE
Protocol: Protein samples were prepared as follows: Sample buffer (0.0625 M Tris-HCl (pH 6.8), 5% 2-mercaptoethanol, 2% SDS, 20% glycerol, and 0.005% BPB) was added to 2.0 mg/mL commercially available BSA (PIERCE). to dilute it to concentrations of 200, 60, 30, 12, 6, 3, and 0.2 ng/μL, respectively. These protein samples were heated at 80° C. for 5 minutes and then left to stand to cool.
Conditions for electrophoresis are as follows: • Electrophoresis apparatus: ERICA XVE-001C (DRC Co., Ltd.) • Polyacrylamide gel: XV PANTERA Gel (DRC Co., Ltd.) • Buffer for electrophoresis: electrophoresis buffer attached to XV PANTERA Gel • Fluorescence imaging analyzer: LS400 (TECAN GROUP LTD) • Excitation wavelength: 543 nm; detection wavelength: 590 nm.
Each of the above prepared samples was applied to a gel at 5 μL/well (1000, 300, 150, 60, 30, 15, and 1 ng/band, respectively), followed by electrophoresis.
as §7

T1 sequence (P02769 25-607): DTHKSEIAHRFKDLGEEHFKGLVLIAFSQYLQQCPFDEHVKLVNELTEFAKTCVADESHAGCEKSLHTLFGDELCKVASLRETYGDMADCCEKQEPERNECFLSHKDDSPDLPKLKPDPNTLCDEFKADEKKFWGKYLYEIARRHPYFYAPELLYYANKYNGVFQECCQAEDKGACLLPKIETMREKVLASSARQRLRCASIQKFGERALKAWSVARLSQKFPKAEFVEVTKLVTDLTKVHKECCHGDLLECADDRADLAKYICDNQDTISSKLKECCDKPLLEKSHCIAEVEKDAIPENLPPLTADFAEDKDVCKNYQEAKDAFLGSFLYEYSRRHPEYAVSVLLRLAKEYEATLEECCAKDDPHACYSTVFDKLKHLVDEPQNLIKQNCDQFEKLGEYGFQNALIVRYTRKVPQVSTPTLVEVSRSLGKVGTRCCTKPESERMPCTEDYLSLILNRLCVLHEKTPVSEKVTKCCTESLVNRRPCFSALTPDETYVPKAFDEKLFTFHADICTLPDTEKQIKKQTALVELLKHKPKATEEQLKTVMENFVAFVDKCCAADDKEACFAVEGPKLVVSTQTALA

Row | SMILES | Detection ([1]; Lane 1, protein 167 ng/band) | Detection ([1]; Lane 2, protein 83.3 ng/band) | Detection ([1]; Lane 3, protein 41.7 ng/band) | Detection ([1]; Lane 4, protein 20.8 ng/band) | Detection ([1]; Lane 5, protein 10.4 ng/band) | Detection ([1]; Lane 6, protein 5.2 ng/band) | Detection ([1]; Lane 7, protein 2.6 ng/band) | Detection ([1]; Lane 8, protein 1.3 ng/band) | Detection ([1]; Lane 9, protein 0.7 ng/band) | Detection ([1]; Lane 10, protein 0.4 ng/band) | Detection limit (protein per band that could be detected) [1] [ng] | Excitation wavelength for maximum fluorescence [2] [nm] | Maximum absorption wavelength [2] | Maximum fluorescence wavelength [2] [nm] | Detection ([5]; Lane 1, protein 167 ng/band) | Detection ([5]; Lane 2, protein 83.3 ng/band) | Detection ([5]; Lane 3, protein 41.7 ng/band) | Detection ([5]; Lane 4, protein 20.8 ng/band) | Detection ([5]; Lane 5, protein 10.4 ng/band) | Detection ([5]; Lane 6, protein 5.2 ng/band) | other results
1 | N#CC(C#N)=C1C=C(/C=C/c2ccccc2S(=O)(=O)[O-])OC(/C=C/c2ccccc2S(=O)(=O)[O-])=C1.[Na+].[Na+] [Compound 1, 2,2′-(1E,1′E)-2,2′-(4-(dicyanomethylene)-4H-pyrane-2,6-diyl)bis(ethene-2,1-diyl)bis(sodium benzenesulfonate)salt] | + | + | + | + | + | + | + | − | − | − | ≥ 2.6 | 444 | 293 nm and 380 nm | 516 | + | + | + | + | + | + | Relationship between protein concentration of each band and fluorescence intensity ([1]; FIG. 2, all proteins of the marker): no differences due to protein type were observed; Detection sensitivity ([3]; Conditions 1: solution (I) purified water, solution (II) purified water): 5 ng; Detection sensitivity ([3]; Conditions 2: solution (I) Tween80, solution (II) purified water): 5 ng; Detection sensitivity ([3]; Conditions 3: solution (I) purified water, solution (II) Tween80): 5 ng; Detection sensitivity ([3]; Conditions 4: solution (I) Tween80, solution (II) Tween80): 5 ng; Detection sensitivity ([3]; Conditions 5: solution (I) Tween20, solution (II) Tween20): 10 ng; Precipitation in the solutions during staining ([4]; 60 μg/mL in buffer, Example 4): no precipitation; Precipitation in the solutions during staining ([4]; 100 μg/mL in purified water/25 mM phosphate buffer (pH 2.5)/methanol=45/45/10): no precipitation; Detection ([5]; Lane 7, protein 2.6 ng/band): +; Detection ([5]; Lane 8, protein 1.3 ng/band): −; Detection ([5]; Lane 9, protein 0.7 ng/band): −; Detection ([5]; Lane 10, protein 0.4 ng/band): −; Protein per band that could be detected ([5]; 1% Tween80 40 minutes): ≥ 5.2 ng
2 | CC1=CC(=C(C#N)C#N)C=C(/C=C/c2ccccc2S(=O)(=O)[O-])O1.[Na+] [Compound 2, (E)-2-(2-(4-(dicyanomethylene)-6-methyl-4H-pyrane-2-yl)vinyl)sodium Benzenesulfonate] | + | + | + | + | − | − | − | − | − | − | 20 | 440 | 388 nm | 511 | − | − | − | − | − | − | Detection ([5]; Lane 7, protein 2.6 ng/band): −; Detection ([5]; Lane 8, protein 1.3 ng/band): −; Detection ([5]; Lane 9, protein 0.7 ng/band): −; Detection ([5]; Lane 10, protein 0.4 ng/band): −; Protein detection (in words) ([5]; 1% Tween80 40 minutes): proteins other than cytochrome C could not be detected
3 | CC1=CC(=C(C#N)C#N)C=C(/C=C/c2ccc(O)c3ccccc23)O1 [Compound 3] |  |  |  |  |  |  |  |  |  |  |  |  |  |  |  |  |  |  |  |  | Sensitivity lower than that of the compound of the present invention (BSA): ≥ 10 times; Detection (BSA; BSA 1 ng/band, compound 100 μg/mL): −; Detection (BSA; BSA 15 ng/band, compound 100 μg/mL): −; Detection (BSA; BSA 30 ng/band, compound 100 μg/mL): +; Detection (BSA; BSA 60 ng/band, compound 100 μg/mL): +; Detection (BSA; BSA 150 ng/band, compound 100 μg/mL): +; Detection (BSA; BSA 300 ng/band, compound 100 μg/mL): +; Detection (BSA; BSA 1000 ng/band, compound 100 μg/mL): +; Protein detection sensitivity (BSA; BSA, compound 100 μg/mL): 30 ng; False positive spots after washing step (BSA; wash solution water:methanol=90:10): insoluble matter adhering to the gel appeared as false positive spots; Solubility in water [4]: hardly soluble in water; Precipitation in the staining solution during staining ([4]; 100 μg/mL in distilled water:methanol=1:1): precipitated in the staining solution
